Assay results taken from the supplement of paper PMC10307832.

Experiments:
Assay in all cases: relative viability (nuclei count vs DMSO), 5 days (fraction); higher = more cells survive
Bleomycin + Foretinib = compound: CC1=C(N=C(N=C1N)[C@H](CC(=O)N)NC[C@@H](C(=O)N)N)C(=O)N[C@@H]([C@H](C2=CN=CN2)OC3C(C(C(C(O3)CO)O)O)OC4C(C(C(C(O4)CO)O)OC(=O)N)O)C(=O)N[C@H](C)[C@H]([C@H](C)C(=O)N[C@@H]([C@@H](C)O)C(=O)NCCC5=NC(=CS5)C6=NC(=CS6)C(=O)NCCC[S+](C)C)O [Bleomycin] + COc1cc2c(Oc3ccc(NC(=O)C4(C(=O)Nc5ccc(F)cc5)CC4)cc3F)ccnc2cc1OCCCN1CCOCC1 [Foretinib] (partner 0.25 µM); settings: main component drawn
In short: (§1)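 Relative viability equals treated-well nuclei counts divided by vehicle-well nuclei counts. Counts came from 4× images of lung cancer cell lines grown in 1536-well plates for 5 days after pin-tool dosing on the day after seeding. Dosing used one drug alone or a fixed anchor-drug dose plus five library-drug doses (not always all listed) in √10 steps, and values are medians of duplicate plates.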

Etoposide + OSI-027 = compound: COc1cc([C@@H]2c3cc4c(cc3[C@@H](O[C@@H]3O[C@@H]5CO[C@@H](C)O[C@H]5[C@H](O)[C@H]3O)[C@H]3COC(=O)[C@H]23)OCO4)cc(OC)c1O [Etoposide] + COc1cccc2cc(-c3nc([C@H]4CC[C@H](C(=O)O)CC4)n4ncnc(N)c34)[nH]c12 [OSI-027] (partner 0.5 µM)
In short: as §1

Etoposide + Lapatinib = compound: COc1cc([C@@H]2c3cc4c(cc3[C@@H](O[C@@H]3O[C@@H]5CO[C@@H](C)O[C@H]5[C@H](O)[C@H]3O)[C@H]3COC(=O)[C@H]23)OCO4)cc(OC)c1O [Etoposide] + CS(=O)(=O)CCNCc1ccc(-c2ccc3ncnc(Nc4ccc(OCc5cccc(F)c5)c(Cl)c4)c3c2)o1 [Lapatinib] (partner 2 µM)
In short: as §1

Etoposide + Pemetrexed = compound: COc1cc([C@@H]2c3cc4c(cc3[C@@H](O[C@@H]3O[C@@H]5CO[C@@H](C)O[C@H]5[C@H](O)[C@H]3O)[C@H]3COC(=O)[C@H]23)OCO4)cc(OC)c1O [Etoposide] + Nc1nc2[nH]cc(CCc3ccc(C(=O)N[C@@H](CCC(=O)O)C(=O)O)cc3)c2c(=O)[nH]1 [Pemetrexed] (partner 0.2 µM)
In short: as §1

Cell Line | relative viability (Bleomycin + Foretinib; first compound 0.01 µM) | relative viability (Bleomycin + Foretinib; first compound 0.03162 µM) | relative viability (Bleomycin + Foretinib; first compound 0.1 µM) | relative viability (Bleomycin + Foretinib; first compound 0.3162 µM) | relative viability (Bleomycin + Foretinib; first compound 1 µM) | relative viability (Etoposide + OSI-027; first compound 0.01 µM) | relative viability (Etoposide + OSI-027; first compound 0.03162 µM) | relative viability (Etoposide + OSI-027; first compound 0.1 µM) | relative viability (Etoposide + OSI-027; first compound 0.3162 µM) | relative viability (Etoposide + OSI-027; first compound 1 µM) | relative viability (Etoposide + Lapatinib; first compound 0.01 µM) | relative viability (Etoposide + Lapatinib; first compound 0.03162 µM) | relative viability (Etoposide + Lapatinib; first compound 0.1 µM) | relative viability (Etoposide + Lapatinib; first compound 0.3162 µM) | relative viability (Etoposide + Lapatinib; first compound 1 µM) | relative viability (Etoposide + Pemetrexed; first compound 0.01 µM) | relative viability (Etoposide + Pemetrexed; first compound 0.03162 µM) | relative viability (Etoposide + Pemetrexed; first compound 0.1 µM) | relative viability (Etoposide + Pemetrexed; first compound 0.3162 µM) | relative viability (Etoposide + Pemetrexed; first compound 1 µM)
LK-2 | 0.803 | 0.779 | 0.743 | 0.36 | 0.285 | 0.248 | 0.214 | 0.185 | 0.194 | 0.158 | 0.949 | 1.23 | 0.566 | 0.555 | 0.217 | 0.36 | 0.315 | 0.208 | 0.224 | 0.186
LOU-NH91 | 0.781 | 0.663 | 0.649 | 0.4 | 0.309 | 0.723 | 0.794 | 0.493 | 0.71 | 0.612 | 0.759 | 0.788 | 0.576 | 0.619 | 0.347 | 0.403 | 0.414 | 0.469 | 0.359 | 0.346
LU99A | 0.683 | 0.64 | 0.503 | 0.297 | 0.19 | 0.307 | 0.343 | 0.242 | 0.308 | 0.228 | 1.09 | 1.18 | 0.521 | 0.347 | 0.167 | 0.161 | 0.18 | 0.186 | 0.163 | 0.167
LXF-289 | 0.933 | 0.888 | 0.804 | 0.36 | 0.14 | 0.783 | 0.784 | 0.67 | 0.71 | 0.431 | 0.88 | 0.972 | 0.953 | 0.601 | 0.222 | 0.961 | 0.952 | 1.04 | 0.788 | 0.285
NCI-H23 | 0.699 | 0.586 | 0.408 | 0.247 | 0.218 | 0.754 | 0.609 | 0.406 | 0.542 | 0.207 | 1.11 | 1.04 | 0.608 | 0.324 | 0.215 | 0.659 | 0.697 | 0.472 | 0.411 | 0.216
NCI-H322M | 0.79 | 0.951 | 0.865 | 0.563 | 0.401 | 0.565 | 0.607 | 0.509 | 0.468 | 0.389 | 0.558 | 0.596 | 0.55 | 0.586 | 0.389 | 0.604 | 0.603 | 0.625 | 0.587 | 0.524
NCI-H358 | 0.606 | 0.591 | 0.556 | 0.351 | 0.254 | 0.711 | 0.757 | 0.366 | 0.136 | 0.0875 | 0.507 | 0.437 | 0.369 | 0.268 | 0.152 | 0.179 | 0.186 | 0.178 | 0.168 | 0.157
NCI-H460 | 0.68 | 0.651 | 0.283 | 0.0633 | 0.0375 | 0.601 | 0.731 | 0.415 | 0.0887 | 0.0402 | 0.726 | 0.732 | 0.394 | 0.0299 | 0.0144 | 0.0661 | 0.0549 | 0.061 | 0.0772 | 0.0604
NCI-H520 | 0.677 | 0.742 | 0.743 | 0.37 | 0.537 | 0.253 | 0.209 | 0.204 | 0.292 | 0.286 | 0.839 | 0.829 | 0.563 | 0.72 | 0.437 | 0.633 | 0.801 | 0.708 | 0.65 | 0.485
NCI-H596 | 0.586 | 0.629 | 0.464 | 0.354 | 0.247 | 0.695 | 0.831 | 0.467 | 0.56 | 0.546 | 0.94 | 1.03 |  | 1.08 | 0.625 | 0.463 | 0.539 | 0.488 | 0.546 | 0.477
NCI-H647 | 0.482 | 0.308 | 0.212 | 0.0979 | 0.073 | 0.579 | 0.627 | 0.456 | 0.491 | 0.267 | 1.05 | 0.984 | 0.797 | 0.185 | 0.0906 | 0.173 | 0.161 | 0.188 | 0.121 | 0.121
NCI-H650 | 0.837 | 0.915 | 0.823 | 0.564 | 0.288 | 0.571 | 0.506 | 0.44 | 0.443 | 0.249 | 0.657 | 0.951 | 0.409 | 0.418 | 0.207 | 0.901 | 1.01 | 0.608 | 0.673 | 0.347
NCI-H661 | 0.896 | 0.924 | 0.689 | 0.393 | 0.357 | 0.702 | 0.712 | 0.619 | 0.494 | 0.267 | 0.44 | 0.416 | 0.314 | 0.283 | 0.235 | 0.863 | 0.984 | 0.849 | 0.858 | 0.625
NCI-H838 | 0.617 | 0.368 | 0.274 | 0.201 | 0.204 | 0.37 | 0.43 | 0.307 | 0.403 | 0.325 | 0.996 | 1.02 | 0.617 | 0.478 | 0.171 | 0.277 | 0.259 | 0.274 | 0.251 | 0.239
